According to paper PMC7059125 (Bioorganic & medicinal chemistry letters, 2018):

Molecular target: mushroom tyrosinase (Agaricus bisporus, UniProt C7FF04)
Assay: Tyrosinase inhibitory assay
Assay type: biochemical
[1] = percent inhibition at 500 μM, versus carvacrol (1)

mushroom tyrosinase, sequence (C7FF04 1-392): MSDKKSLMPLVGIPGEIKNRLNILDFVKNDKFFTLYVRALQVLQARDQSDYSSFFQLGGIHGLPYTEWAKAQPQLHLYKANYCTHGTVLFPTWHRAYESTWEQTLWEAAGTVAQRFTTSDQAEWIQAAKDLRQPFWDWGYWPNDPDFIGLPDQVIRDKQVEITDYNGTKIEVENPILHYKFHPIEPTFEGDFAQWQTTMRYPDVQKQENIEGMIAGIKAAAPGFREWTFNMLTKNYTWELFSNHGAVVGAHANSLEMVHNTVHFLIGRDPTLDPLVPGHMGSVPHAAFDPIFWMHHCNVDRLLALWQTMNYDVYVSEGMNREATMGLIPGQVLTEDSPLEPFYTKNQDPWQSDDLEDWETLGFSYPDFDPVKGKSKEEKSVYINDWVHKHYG

CCOc1cc(C(C)C)c(C(=O)CCC(=O)O)cc1C [Compound 5]
fold decrease in activity relative to carvacrol [1]: 2.1 fold

CCOc1cc(C(C)C)ccc1C [Compound 3, ethyl carvacrol]
fold increase in activity relative to carvacrol [1]: 1.6 fold

CCCCOC(=O)CCC(=O)c1cc(C(C)C)c(OCC)cc1C [Compound 18]
inhibition at 500 µM: 100 ± 3.9%
